Measurements taken from patent publication US20030176494A1, “Novel coumarin and chromene compounds and methods of preparation and use thereof for treating or preventing viral infections” (priority 2001, published 2003).
Values after ≈ are worked out from the molar mass of the structure shown. Where two headings read alike, the source gives them in different places.

Key:
HIV = experiment: Anti-HIV evaluation by MTT-tetrazolium method (inhibition of CPE in MT-2 / CEM-SS cells); format: cell-based; settings: Human immunodeficiency virus 1, CEM-SS; read-out: Antiviral Activities (EC50) HIV
Experimental: This example illustrates the anti-HIV activity of various coumarin and chromene compounds which were evaluated using the published MTT-tetrazolium methods^8. Retroviral agents AZT and DDC were used as controls for comparison purposes.
The cells used for screening were the MT-2 and the human T4-lymphoblastoid cell line, CEM-SS, and were grown in RPMI 1640 medium supplemented with 10% fetal (v/v) heat-inactivated fetal calf serum and also containing 100 units/mL penicillin, 100 μg/mL streptomycin, 25 mM HEPES and 20 μg/mL gentamicin. The medium used for dilution of drugs and maintenance of cultures during the assay was the same as above. The HTLV-IIIB and HTLV-RF were propagated in CEM-SS. The appropriate amounts of the pure compounds for anti-HIV evaluations were dissolved in DMSO, then diluted in medium to the desired initial concentration. The concentrations (M medium) employed were […]; 0.001 μM; 0.0032 μM; 0.01 μM; 0.032 μM; 0.1 μM; 0.32 μM; 1 μM; 3.2 μM; 10 μM; 32 μM; and 100 μM. Each dilution was added to plates in the amount of 100 μL/well. Drugs were tested in triplicate wells per dilution with infected cells while in duplicate wells per dilution with uninfected cells for evaluation of cytotoxicity. On day 6 (CEM-SS cells) and day 7 (MT-2 cells) post-infection, the viable cells were measured with a tetrazolium salt, MTT (5 mg/mL), added to the test plates. A solution of 20% SDS in 0.001 N HCl is used to dissolve the MTT formazan produced. The optical density value was a function of the amount of formazan produced which was proportional to the number of viable cells. The percent inhibition of CPE per drug concentration was measured as a test over control and expressed in percent (T/C %).

Measles Virus = experiment: Measles virus antiviral assay (CPE inhibition, neutral red uptake, virus yield); format: cell-based, Measles virus strain CC; settings: Measles morbillivirus
EBV = EBV assay: superinfection of Raji or Daudi cells with P3HR-1, immunofluorescence for EA and VCA; format: cell-based, Epstein-Barr Virus (P3HR-1)
From the text: There are two prototypes of infectious EBV. One is exemplified by the virus derived from supernatant fluids of the P3HR-1cell line. This cell line produces nontransforming virus that causes the production of early antigen (EA) after primary infection or superinfection of B cell lines. The other prototype is exemplified by the B-95-8 virus. This virus immortalized cord blood lymphocytes and induced tumors in marmosets. […] The virus used in our assays is P3HR-1.
Ramos is an exceptional B cell line derived from Burkitt's lymphoma tumor but containing no detectable EBV genome copies and is EBNA negative. Ramos/AW was obtained by in vitro infection of Ramos with the P3HR-1 virus and contains one resident EBV genome copy/cell. Raji is a Burkitt's lymphoma cell line containing 60 EBV genomes/cell, and will be the primary cell used for screening antiviral activity against EBV EA expression. Daudi is a low level producer that contains 152 EBV genome copies/cell. It spontaneously expresses EBV EA in 0.25%-0.5% of the cells. It will be used in follow-up studies to confirm activity. These cell lines respond to superinfection by EBV by expressing EA(D), EA(R), and VCA. All cell lines are maintained in RPMI-1640 medium supplemented by 10% FCS, L-glutamine and 100 μg/mL gentamicin. The cultures are fed twice weekly and the cell concentration adjusted to 3×10^5/mL. The cells are kept at 37° C. in a humidified atmosphere with 5% CO2.
Cells are infected with the P3HR-1 strain of EBV and the drugs to be tested are added after adsorption (45 minutes at 37° C.) and washing of the cell cultures. The cultures are incubated for two days in complete medium to allow viral gene expression. Following the 48 hr incubation period, the number of cells of each sample are counted and smears made. Monoclonal antibodies to the different EA components and VCA are then added to the cells incubated and washed. This is followed by a fluorescein conjugated rabbit anti-mouse Ig antibody; and the number of fluorescence positive cells in the smears are counted. The total number of cells in the cultures positive for EA or VCA are then calculated and compared.

Rhinovirus = Rhinovirus antiviral assay (CPE inhibition, neutral red uptake, virus yield); format: cell-based; settings: Enterovirus
[1] = test system: Respiratory Syncytial Virus; experiment: Respiratory syncytial virus antiviral assay (CPE inhibition, neutral red uptake); format: cell-based, Respiratory syncytial virus strain Utah 89; settings: human respiratory syncytial virus
HBV = HBV replication in cultures of 2.2.15 cells (HBV DNA blot hybridization); format: cell-based; settings: Hepatitis B virus; read-out: Antiviral Activities (EC50) HBV
Experimental: Test compounds are then added daily for a continuous 9 day period. Culture medium (changed daily during the treatment period) is collected and stored for analysis of extracellular (virion) HBV DNA after 0, 3, 6, and 9 days of treatment. Treated cells are lysed 24 hours following day 9 of treatment for the analysis of intracellular HBV genomic forms. HBV DVA is then analyzed in a quantitative and qualitative manner for overall levels of HBV DNA (both extracellular and intracellular DNA) and the relative rate of HBV replication (intracellular DNA).
Both intracellular and extracellular HBV DNA are analyzed in order to (i) allow for verification of compound efficacy and (ii) provide possible data on the target site in the HBV replication pathway for the compound from examination of the pattern of viral replicative forms. The culture medium is changed daily during the treatment period to (i) prevent the buildup of potentially toxic metabolites derived from test compounds and (ii) provide an analysis of HBV virion production during discrete 24-hour intervals which enables a quantitative comparison of any effect on virion production.
The analysis of HBV DNA is performed using blot hybridization techniques (Southern and slot blot) and [^32P]-labeled HBV-specific probes. HBV DNA levels are measured by comparison to known amounts of HBV DNA standards applied to every nitrocellulose membrane (gel or slot blot). An AMBIS beta scanner, which measures the radioactive decay of the hybridized probes directly from the nitrocellulose membranes, is used for the quantitative analysis. Standard curves, generated by multiple analyses, are used to correlate CPM measurements made by the beta scanner with relative levels of target HBV DNA. The levels of HBV virion DNA released into the culture medium are analyzed by a slot blot hybridization procedure. HBV DNA levels are then compared to those at Day 0 to determine the effect of drug treatment.
The levels of RI and episomal monomers are used as an indicator of the relative level of HBV replication. Integrated HBV DNA is used to normalize the relative amounts of DNA in each lane because the levels of this class of HBV DNA would be expected to remain constant on a per cell basis. […] Inhibition of HBV DNA replication is indicated by the loss of RI without changes in the level of integrated HBV DNA.

VZV = VZV plaque reduction assay in human foreskin fibroblast cells; format: cell-based, Varicella Zoster Virus (Ellen strain)
Experimental: [table] Two days prior to use, HFF cells are plated into six-well plates and incubated at 37° C. with 5% CO2 and 90% humidity. On the date of assay, the drug is made up at twice the desired concentration in 2×MEM and then serially diluted 1:5 in 2×MEM using six concentrations of drug. […] The media is then aspirated from the wells and 0.2 mL of virus is added to each well in duplicate with 0.2 mL of media being added to drug toxicity wells. The plates are then incubated for one hour with shaking every fifteen minutes. […] The drug agarose mixture is applied to each well in 2 mL volume and the plates then incubated for three days, after which the cells were stained with a 1.5% solution of neutral red. At the end of 4-6 hr incubation period, the stain is aspirated, and plaques counted using a stereomicroscope at 10× magnification. The procedure is essentially the same as for the HSV plaque assay described above with two exceptions: 1. After addition of the drug, the plates are incubated for ten days. 2.

[2] = CPE inhibition, read-out: Antiviral Activities (EC50) Measles (CPE)
[3] = neutral red (NR) dye uptake, read-out: Antiviral Activities (EC50) Measles (NR)
[4] = human gammaherpesvirus 4; read-out: Antiviral Activities (EC50) EBV
[5] = CPE inhibition, read-out: Antiviral Activities (EC50) Rhinovirus (CPE)
[6] = neutral red (NR) dye uptake, read-out: Antiviral Activities (EC50) Rhinovirus (NR)
[7] = Human alphaherpesvirus 3, Fibroblast; read-out: Antiviral Activities (EC50) VZV
[8] = CPE inhibition, read-out: Antiviral Activities (EC50) Respiratory Syncitial (CPE)
[9] = neutral red (NR) dye uptake, read-out: Antiviral Activities (EC50) Respiratory Syncitial (NR)

Structure (SMILES) | EC50 (HIV) | EC50 (Measles Virus; [2]) | EC50 (Measles Virus; [3]) | EC50 (HBV) | EC50 (EBV; [4]) | EC50 (Rhinovirus; [5]) | EC50 (Rhinovirus; [6]) | EC50 (VZV; [7]) | EC50 [1, 8] | EC50 [1, 9] | further results
CCCc1cc(=O)oc2cc(OC(C)CCO[Si](C)(C)C(C)(C)C)c3c(c12)OC(C)(C)C=C3 (stereo not drawn) | > 18 µg/mL | – | – | – | – | – | – | – | – | – | –
CCCc1cc(=O)oc2cc(O)cc(O)c12 | – | > 100 µg/mL | > 100 µg/mL | > 2.2 µg/mL | – | – | – | – | – | – | EC50 (EBV; human gammaherpesvirus 4, read-out: Antiviral Activities (EC50) EBV): > 50 µg/mL; EC50 (Rhinovirus; readout not stated, read-out: Antiviral Activities (EC50) Rhinovirus): 27 µg/mL (≈ 123 µM); EC50 ([1]; readout not stated, read-out: Antiviral Activities (EC50) Respiratory Syncitial): 6 µg/mL (≈ 27.2 µM); EC50 (VZV; Human alphaherpesvirus 3, Fibroblast, read-out: Antiviral Activities (EC50) VZV): 5.9 µg/mL (≈ 26.8 µM)
CCCc1cc(=O)oc2cc(O)c(C(=O)CC)c(O)c12 | > 5 µg/mL | 3 µg/mL (≈ 10.9 µM) | 0.4 µg/mL (≈ 1.45 µM) | 1 µg/mL (≈ 3.62 µM) | 8.5 µg/mL (≈ 30.8 µM) | 2 µg/mL (≈ 7.24 µM) | 5 µg/mL (≈ 18.1 µM) | > 4 µg/mL | – | – | –
CCCc1cc(=O)oc2c(C(=O)CC)c(O)cc(O)c12 | – | 10 µg/mL (≈ 36.2 µM) | > 100 µg/mL | > 3 µg/mL | 0.33 µg/mL (≈ 1.19 µM) | 30 µg/mL (≈ 109 µM) | 28 µg/mL (≈ 101 µM) | > 0.8 µg/mL | 2 µg/mL (≈ 7.24 µM) | 4 µg/mL (≈ 14.5 µM) | –
CCCc1cc(=O)oc2c(C(=O)CC)c(O)c3c(c12)OC(C)(C)C=C3 | > 68 µg/mL | 20 µg/mL (≈ 58.4 µM) | > 100 µg/mL | > 3 µg/mL | 27 µg/mL (≈ 78.9 µM) | – | – | 16.1 µg/mL (≈ 47 µM) | 20 µg/mL (≈ 58.4 µM) | 40 µg/mL (≈ 117 µM) | –
CCCc1cc(=O)oc2cc(O[C@H](C)[C@@H](C)CO)c3c(c12)OC(C)(C)C=C3 | > 2 µg/mL | – | – | – | – | – | – | – | – | – | –
CCCc1cc(=O)oc2cc(O[C@H](C)[C@@H](C)CO[Si](C)(C)C(C)(C)C)c3c(c12)OC(C)(C)C=C3 | 7.2 µg/mL (≈ 14.8 µM) | – | – | – | – | – | – | – | – | – | –
CCCc1cc(=O)oc2c(C(=O)C(C)(O)C(C)O)c(O)c3c(c12)OC(C)(C)C=C3 (stereo not drawn) | > 24 µg/mL | 20 µg/mL (≈ 49.7 µM) | 40 µg/mL (≈ 99.4 µM) | > 4 µg/mL | – | 0.5 µg/mL (≈ 1.24 µM) | 1 µg/mL (≈ 2.48 µM) | 19.9 µg/mL (≈ 49.4 µM) | 50 µg/mL (≈ 124 µM) | 40 µg/mL (≈ 99.4 µM) | –
CCCc1cc(=O)oc2c3c(c4c(c12)OC(C)(C)[C@H](O)[C@H]4OC(=O)c1cccc(Cl)c1)O[C@H](C)[C@@H](C)[C@@H]3O | 8.4 µg/mL (≈ 15.5 µM) | – | – | – | – | – | – | – | – | – | –
CCCc1cc(=O)oc2cc(OC(=O)C(C)(C)C)cc(O)c12 [drawing 26] | – | – | – | > 3 µg/mL | 1.1 µg/mL (≈ 3.61 µM) | – | – | 83 µg/mL (≈ 273 µM) | – | – | –
